# In PubChem BioAssay (NCI):
#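 Tested at 5 concentrations; 48 h exposure; 96-well plates; endpoints linearly interpolated, else capped at highest concentration. TGI: total growth inhibition.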
# Columns and labels:
# Assay in all cases: NCI anticancer screen, dose series, 48 h
# SF-539 CNS = tested on: SF-539 CNS
# SF-268 CNS = tested on: SF-268 CNS
# TK-10 renal = tested on: TK-10 renal
# SR leukemia = tested on: SR leukemia
# HL-60(TB) leukemia = tested on: HL-60(TB) leukemia
# MALME-3M melanoma = tested on: MALME-3M melanoma
# COLO 205 colon = tested on: COLO 205 colon
# T-47D breast = tested on: T-47D breast
# MDA-N = tested on: MDA-N
# SNB-19 CNS = tested on: SNB-19 CNS
# UACC-62 melanoma = tested on: UACC-62 melanoma
# HCT-116 colon = tested on: HCT-116 colon
# UO-31 renal = tested on: UO-31 renal
# OVCAR-4 ovarian = tested on: OVCAR-4 ovarian
# CAKI-1 renal = tested on: CAKI-1 renal
# SK-MEL-28 melanoma = tested on: SK-MEL-28 melanoma
# MDA-MB-435 = tested on: MDA-MB-435
# NCI-H23 lung = tested on: NCI-H23 lung
# LOX IMVI melanoma = tested on: LOX IMVI melanoma
# SK-MEL-5 melanoma = tested on: SK-MEL-5 melanoma
# PC-3 prostate = tested on: PC-3 prostate
# HCT-15 colon = tested on: HCT-15 colon
# RPMI-8226 leukemia = tested on: RPMI-8226 leukemia
# SNB-75 CNS = tested on: SNB-75 CNS
# IGROV1 ovarian = tested on: IGROV1 ovarian
# U251 CNS = tested on: U251 CNS
# OVCAR-5 ovarian = tested on: OVCAR-5 ovarian
# MOLT-4 leukemia = tested on: MOLT-4 leukemia
# BT-549 breast = tested on: BT-549 breast
# RXF 393 renal = tested on: RXF 393 renal
# UACC-257 melanoma = tested on: UACC-257 melanoma
# K-562 leukemia = tested on: K-562 leukemia
# NCI-H226 lung = tested on: NCI-H226 lung
# KM12 colon = tested on: KM12 colon
# HT29 colon = tested on: HT29 colon
# HOP-62 NSCLC = tested on: HOP-62 NSCLC
# HS 578T breast = tested on: HS 578T breast
# NCI/ADR-RES ovarian = tested on: NCI/ADR-RES ovarian
# DU-145 prostate = tested on: DU-145 prostate
# SW-620 colon = tested on: SW-620 colon
# SF-295 CNS = tested on: SF-295 CNS
# MDA-MB-231 breast = tested on: MDA-MB-231 breast
# OVCAR-3 ovarian = tested on: OVCAR-3 ovarian
# 786-0 renal = tested on: 786-0 renal
# A549 NSCLC = tested on: A549 NSCLC
# HOP-92 NSCLC = tested on: HOP-92 NSCLC
# HCC-2998 colon = tested on: HCC-2998 colon
# SK-OV-3 ovarian = tested on: SK-OV-3 ovarian
# OVCAR-8 ovarian = tested on: OVCAR-8 ovarian
# M14 melanoma = tested on: M14 melanoma
# A498 renal = tested on: A498 renal
# NCI-H460 lung = tested on: NCI-H460 lung
# MCF7 breast = tested on: MCF7 breast
# SK-MEL-2 melanoma = tested on: SK-MEL-2 melanoma
# EKVX NSCLC = tested on: EKVX NSCLC
# NCI-H522 lung = tested on: NCI-H522 lung
# SN12C renal = tested on: SN12C renal
# ACHN renal = tested on: ACHN renal
# CCRF-CEM leukemia = tested on: CCRF-CEM leukemia
smiles,measurement,setting,value
COc1ccccc1/C=C1\Sc2scc(-c3cccc([N+](=O)[O-])c3)[n+]2C1=O,TGI,SF-539 CNS,3.56 µM
same,TGI,SF-268 CNS,18 µM
same,TGI,TK-10 renal,10.7 µM
same,TGI,SR leukemia,> 100 µM
same,TGI,HL-60(TB) leukemia,1.17 µM
same,TGI,MALME-3M melanoma,15.7 µM
same,TGI,COLO 205 colon,5.19 µM
same,TGI,T-47D breast,33.1 µM
same,TGI,MDA-N,12.3 µM
same,TGI,SNB-19 CNS,25.8 µM
same,TGI,UACC-62 melanoma,22.6 µM
same,TGI,HCT-116 colon,16.7 µM
same,TGI,UO-31 renal,9.86 µM
same,TGI,OVCAR-4 ovarian,43.2 µM
same,TGI,CAKI-1 renal,6.24 µM
same,TGI,SK-MEL-28 melanoma,65.2 µM
same,TGI,MDA-MB-435,18.2 µM
same,TGI,NCI-H23 lung,29.6 µM
same,TGI,LOX IMVI melanoma,4.39 µM
same,TGI,SK-MEL-5 melanoma,8.86 µM
same,TGI,PC-3 prostate,37.4 µM
same,TGI,HCT-15 colon,5.92 µM
same,TGI,RPMI-8226 leukemia,9.28 µM
same,TGI,SNB-75 CNS,34.4 µM
same,TGI,IGROV1 ovarian,26.1 µM
same,TGI,U251 CNS,39.6 µM
same,TGI,OVCAR-5 ovarian,39 µM
same,TGI,MOLT-4 leukemia,3.44 µM
same,TGI,BT-549 breast,12.6 µM
same,TGI,RXF 393 renal,10.7 µM
same,TGI,UACC-257 melanoma,19.8 µM
same,TGI,K-562 leukemia,> 100 µM
same,TGI,NCI-H226 lung,33.5 µM
same,TGI,KM12 colon,25.2 µM
same,TGI,HT29 colon,9.97 µM
same,TGI,HOP-62 NSCLC,27.6 µM
same,TGI,HS 578T breast,> 62.6 µM
same,TGI,NCI/ADR-RES ovarian,34.2 µM
same,TGI,DU-145 prostate,26.6 µM
same,TGI,SW-620 colon,> 36.4 µM
same,TGI,SF-295 CNS,40.2 µM
same,TGI,MDA-MB-231 breast,19.3 µM
same,TGI,OVCAR-3 ovarian,26.7 µM
same,TGI,786-0 renal,9.63 µM
same,TGI,A549 NSCLC,35.4 µM
same,TGI,HOP-92 NSCLC,16.6 µM
same,TGI,HCC-2998 colon,22.8 µM
same,TGI,SK-OV-3 ovarian,26 µM
same,TGI,OVCAR-8 ovarian,24.8 µM
same,TGI,M14 melanoma,18.6 µM
same,TGI,A498 renal,48.9 µM
same,TGI,NCI-H460 lung,26.9 µM
same,TGI,MCF7 breast,10.3 µM
same,TGI,SK-MEL-2 melanoma,31.3 µM
same,TGI,EKVX NSCLC,28 µM
same,TGI,NCI-H522 lung,3.61 µM
same,TGI,SN12C renal,11.5 µM
same,TGI,ACHN renal,9.93 µM
C[C@H](CCC1=NCCN1)[C@H]1CC[C@H]2[C@@H]3[C@H](O)C[C@@H]4C[C@H](O)CC[C@]4(C)[C@H]3CC[C@]12C,TGI,SF-539 CNS,25.5 µM
same,TGI,SF-268 CNS,26 µM
same,TGI,TK-10 renal,26.7 µM
same,TGI,MALME-3M melanoma,29.2 µM
same,TGI,COLO 205 colon,21.1 µM
same,TGI,T-47D breast,31.3 µM
same,TGI,MDA-N,32.7 µM
same,TGI,SNB-19 CNS,26.1 µM
same,TGI,UACC-62 melanoma,23.5 µM
same,TGI,CCRF-CEM leukemia,32.9 µM
same,TGI,HCT-116 colon,26.4 µM
same,TGI,UO-31 renal,27.8 µM
same,TGI,OVCAR-4 ovarian,28.1 µM
same,TGI,CAKI-1 renal,40.9 µM
same,TGI,SK-MEL-28 melanoma,27.2 µM
same,TGI,MDA-MB-435,26.7 µM
same,TGI,NCI-H23 lung,27.3 µM
same,TGI,LOX IMVI melanoma,22.8 µM
same,TGI,SK-MEL-5 melanoma,27.3 µM
same,TGI,PC-3 prostate,21 µM
same,TGI,HCT-15 colon,30.1 µM
same,TGI,RPMI-8226 leukemia,35.3 µM
same,TGI,SNB-75 CNS,22.4 µM
same,TGI,IGROV1 ovarian,23.9 µM
same,TGI,U251 CNS,26.5 µM
same,TGI,OVCAR-5 ovarian,27.5 µM
same,TGI,MOLT-4 leukemia,27.3 µM
same,TGI,BT-549 breast,24.7 µM
same,TGI,RXF 393 renal,31.6 µM
same,TGI,UACC-257 melanoma,28.3 µM
same,TGI,K-562 leukemia,21.6 µM
same,TGI,NCI-H226 lung,30.2 µM
same,TGI,KM12 colon,27.7 µM
same,TGI,HT29 colon,10.4 µM
same,TGI,HOP-62 NSCLC,29.7 µM
same,TGI,HS 578T breast,28.5 µM
same,TGI,NCI/ADR-RES ovarian,> 100 µM
same,TGI,DU-145 prostate,27.3 µM
same,TGI,SW-620 colon,30.1 µM
same,TGI,SF-295 CNS,28.9 µM
same,TGI,MDA-MB-231 breast,33.5 µM
same,TGI,OVCAR-3 ovarian,26.6 µM
same,TGI,786-0 renal,27.7 µM
same,TGI,HOP-92 NSCLC,21.8 µM
same,TGI,HCC-2998 colon,28.5 µM
same,TGI,SK-OV-3 ovarian,33.1 µM
same,TGI,OVCAR-8 ovarian,29 µM
same,TGI,M14 melanoma,28.6 µM
same,TGI,A498 renal,26.1 µM
same,TGI,NCI-H460 lung,24.3 µM
same,TGI,MCF7 breast,28.5 µM
same,TGI,SK-MEL-2 melanoma,29.9 µM
same,TGI,EKVX NSCLC,32.3 µM
same,TGI,NCI-H522 lung,28.5 µM
same,TGI,SN12C renal,37 µM
same,TGI,ACHN renal,30 µM
